Measured values published in ChEMBL document CHEMBL4627269, “New thiopyrimidine-benzenesulfonamide conjugates as selective carbonic anhydrase II inhibitors: synthesis, in vitro biological evaluation, and molecular docking studies” (Bioorg Med Chem, 2020).

What was measured:
Carbonic anhydrase 9 = Carbonic anhydrase 9 (Homo sapiens, UniProt Q16790); test: Inhibition of human carbonic anhydrase 9 incubated for 15 mins prior to testing measured for 10 to 100 secs by phenol red dye based stopped-flow CO2 hydration assay
Carbonic anhydrase 1 = Carbonic anhydrase 1 (Homo sapiens, UniProt P00915); test: Inhibition of human carbonic anhydrase 1 incubated for 15 mins prior to testing measured for 10 to 100 secs by phenol red dye based stopped-flow CO2 hydration assay
Carbonic anhydrase 12 = Carbonic anhydrase 12 (Homo sapiens, UniProt O43570); test: Inhibition of human carbonic anhydrase 12 incubated for 15 mins prior to testing measured for 10 to 100 secs by phenol red dye based stopped-flow CO2 hydration assay
Carbonic anhydrase 2 [1] = target: T1, Carbonic anhydrase 2 (Homo sapiens, UniProt P00918); test: Inhibition of recombinant human carbonic anhydrase 2 expressed in Escherichia coli BL21 (DE3) using 4-nitrophenyl acetate as substrate incubated for 10 mins prior to testing by spectrophotometric method
Carbonic anhydrase 2 [2] = target: T1, Carbonic anhydrase 2; test: Inhibition of recombinant human carbonic anhydrase 2 incubated for 15 mins prior to testing measured for 10 to 100 secs by phenol red dye based stopped-flow CO2 hydration assay

Chain of Carbonic anhydrase 1 (P00915 whole entry): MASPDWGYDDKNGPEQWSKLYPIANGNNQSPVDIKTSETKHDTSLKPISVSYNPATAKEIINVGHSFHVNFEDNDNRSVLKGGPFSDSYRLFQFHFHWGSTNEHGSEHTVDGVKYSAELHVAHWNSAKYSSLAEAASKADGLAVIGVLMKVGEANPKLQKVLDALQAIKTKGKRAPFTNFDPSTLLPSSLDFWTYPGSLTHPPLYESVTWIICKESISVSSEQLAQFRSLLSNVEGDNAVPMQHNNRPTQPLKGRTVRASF
Chain of Carbonic anhydrase 12 (O43570 whole entry): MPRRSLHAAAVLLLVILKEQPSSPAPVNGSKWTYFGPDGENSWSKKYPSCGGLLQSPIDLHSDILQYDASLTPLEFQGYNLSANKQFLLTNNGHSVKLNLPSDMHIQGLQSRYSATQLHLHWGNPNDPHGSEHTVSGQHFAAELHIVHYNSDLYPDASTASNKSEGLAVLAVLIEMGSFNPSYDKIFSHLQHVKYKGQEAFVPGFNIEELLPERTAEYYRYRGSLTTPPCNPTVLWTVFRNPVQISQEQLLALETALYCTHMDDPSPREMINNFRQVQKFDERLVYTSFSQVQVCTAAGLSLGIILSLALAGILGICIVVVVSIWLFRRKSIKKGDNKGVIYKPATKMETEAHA

| SMILES | Ki (Carbonic anhydrase 9) | Ki (Carbonic anhydrase 1) | other results |
| --- | --- | --- | --- |
| NS(=O)(=O)c1ccc(Nc2ccnc(SCC(=O)c3ccc(Br)cc3)n2)cc1 | > 100 µM | – | – |
| O=C(CSc1nccc(Nc2ccc(S(=O)(=O)Nc3cncs3)cc2)n1)c1ccccc1 | > 100 µM | – | – |
| O=C(CSc1nccc(Nc2ccc(S(=O)(=O)Nc3ccccn3)cc2)n1)c1ccccc1 | > 100 µM | > 100 µM | – |
| Cc1cc(NS(=O)(=O)c2ccc(Nc3ccnc(SCC(=O)c4ccc(F)cc4)n3)cc2)no1 | 92.1 µM | > 100 µM | Ki (Carbonic anhydrase 12): > 100 µM |
| NS(=O)(=O)c1ccc(Nc2ccnc(SCC(=O)c3ccc(Cl)cc3)n2)cc1 | > 100 µM | – | – |
| NS(=O)(=O)c1ccc(Nc2ccnc(NS(=O)(=O)c3cccnc3)n2)cc1 | – | – | Ki (Carbonic anhydrase 2 [1]): 0.004 µM |
| COc1ccc(C(=O)CSc2nccc(Nc3ccc(S(=O)(=O)Nc4cc(C)on4)cc3)n2)cc1 | > 100 µM | – | – |
| NS(=O)(=O)c1ccc(Nc2ccnc(NS(=O)(=O)c3cccc(C(F)(F)F)c3)n2)cc1 | – | – | Ki (Carbonic anhydrase 2 [1]): 0.001 µM |
| O=C(CSc1nccc(Nc2ccc(S(=O)(=O)Nc3cncs3)cc2)n1)c1ccc(C(F)(F)F)cc1 | > 100 µM | – | – |
| O=C(CSc1nccc(Nc2ccc(S(=O)(=O)Nc3ccccn3)cc2)n1)c1ccc(Cl)cc1 | > 100 µM | > 100 µM | – |
| COc1ccc(C(=O)CSc2nccc(Nc3ccc(S(=O)(=O)Nc4ccccn4)cc3)n2)cc1 | > 100 µM | > 100 µM | Ki (Carbonic anhydrase 2 [2]): > 100 µM |
| CC(=O)NS(=O)(=O)c1ccc(Nc2ccnc(SCC(=O)c3ccc(Cl)cc3)n2)cc1 | > 100 µM | – | – |

The remaining molecules from weak to strong by Ki (Carbonic anhydrase 9), led by results:

| Ki (Carbonic anhydrase 9) | Ki (Carbonic anhydrase 1) | SMILES | other results |
| --- | --- | --- | --- |
| 39.2 µM | – | NS(=O)(=O)c1ccc(Nc2ccnc(SCC(=O)c3ccc(C(F)(F)F)cc3)n2)cc1 | – |
| 8.94 µM | > 100 µM | Cc1cc(NS(=O)(=O)c2ccc(Nc3ccnc(SCC(=O)c4ccc(Cl)cc4)n3)cc2)no1 | – |
| 5.17 µM | – | COc1ccc(C(=O)CSc2nccc(Nc3ccc(S(N)(=O)=O)cc3)n2)cc1 | – |
| 2.51 µM | > 100 µM | COc1ccc(C(=O)CSc2nccc(Nc3ccc(S(=O)(=O)Nc4ncccn4)cc3)n2)cc1 | Ki (Carbonic anhydrase 2 [2]): > 100 µM |
| 0.82 µM | – | NS(=O)(=O)c1ccc(Nc2ccnc(SCC(=O)c3ccc(F)cc3)n2)cc1 | – |
| 0.55 µM | – | O=C(CSc1nccc(Nc2ccc(S(=O)(=O)Nc3cncs3)cc2)n1)c1ccc(Cl)cc1 | – |
| 0.23 µM | > 100 µM | NS(=O)(=O)c1ccc(Nc2ccnc(SCC(=O)c3ccc(-c4ccccc4)cc3)n2)cc1 | – |
| 0.16 µM | – | NS(=O)(=O)c1ccc(Nc2ccnc(SCC(=O)c3ccccc3)n2)cc1 | – |
